From ChEMBL document CHEMBL3397038, “A coumarin lignanoid from the stems of Kadsura heteroclita” (2015)
Active and inactive are the calls of the source. No cut-off for these calls is given here.

What was measured:
Hepatitis B virus [1] = experiment: Antiviral activity against hepatitis B viral in human HepG2(2.2.15) cells assessed as decrease in surface antigen HBsAg secretion at 25 ug/ml after 7 days; assay type: functional; details: HepG2 2.2.15, 168 h
Hepatitis B virus [2] = experiment: Antiviral activity against hepatitis B viral in human HepG2(2.2.15) cells assessed as decrease in surface antigen HBeAg secretion at 25 ug/ml after 7 days; assay type: functional; details: HepG2 2.2.15, 168 h
[3] = Antifibrotic activity in […] cells assessed as inhibition of acetaldehyde-stimulated cell growth at 50 uM/L; assay type: functional
Primary neuron = experiment: Neuroprotective activity against serum-deprivation-induced neurotoxicity in rat primary cerebellar granule neuronal cells assessed as cell viability at 10 uM by MTT assay relative to control; assay type: functional, cell-based
PC-12 = experiment: Neuroprotective activity against serum-deprivation-induced neurotoxicity in rat PC12 cells assessed as cell viability at 10 uM after 48 hrs by MTT assay relative to control; assay type: functional, cell-based

## Nc1ccn([C@@H]2CS[C@H](CO)O2)c(=O)n1 [LAMIVUDINE]
Hepatitis B virus [1]
  inhibition at 25 µg/mL: 10%
Hepatitis B virus [2]
  inhibition at 25 µg/mL: 46%

## O=c1oc2cc3c(cc2cc1[C@@H](CO)Cc1ccc2c(c1)OCO2)OCO3
Hepatitis B virus [1]
  inhibition at 25 µg/mL: 57%
Hepatitis B virus [2]
  inhibition at 25 µg/mL: 48%
[3]
  inhibition at 50 µM: 71%
Primary neuron
  Activity: Active
PC-12
  Activity: Active
